# Earlier results, collected in patent publication USRE39705E1, “Method of treating glutathione deficient mammals” (Vit-Immune, L.C., priority 1998, dated 2007).
# Columns and labels:
# [1] = not given; remark: listed apart in the source
compound,measurement,setting,value
"O=C(O)CCCCC1CCSS1 (stereo not drawn) [Alpha lipoic acid, alpha lipoic acid]",intracellular reduced glutathione,in vitro and in vivo (literature),substantial increase
"N[C@@H](CS)C(=O)O [Example 1-cysteine, 1-cysteine]",GSH levels,substituted into the diet in place of the total protein allowance,effective in raising GSH levels
NC(=O)CC[C@H](N)C(=O)O [L-glutamine],liver glutathione,after lethal hepatic injury,preserve liver glutathione
"N[C@@H](CCC(=O)N[C@@H](CS)C(=O)NCC(=O)O)C(=O)O [glutathione, γ-L-Glutamyl-L-cysteinylglycine]",absorption of oral supplementation by the mammal's cells,[1],not well absorbed
same,replenishment of intracellular glutathione losses,[1]; oral,does not replenish losses inside cells
